For one test, the system named is hormone concentration. As to the kind of experiment: clinical trials, daily dose of 10 mg, suppression of hormone concentration. The class given is in vivo, human. To be noted: daily dose of 10 mg. The source says:
This high daily dose cannot be applied in slow-release forms which are intended to act over a long period of time, for example several months. The depot injected under the skin would be too voluminous and would no longer be acceptable. Therefore there is the object of providing a product for reliable and acceptable application.

In test [1] the test system is DMBA-induced mammary cancers. Kind of test: DMBA-induced mammary cancers in rats. To be noted: initial high dose and a further dose which is not active when administered on its own. Format: in vivo.
The subject of another test is LH, FSH and testosterone. As to the kind of experiment: trial in humans over three weeks, initial dose plus maintenance doses, suppression of LH, FSH and testosterone. Format: in vivo. The method, then: This surprising observation in animals was also confirmed in humans. […] The trial was performed over three weeks.

Non-standard residues stand in square brackets, D forms with d. Residues, ends and D or L forms follow the SMILES beside them. dPhe(4-Cl) = N[C@H](Cc1ccc(Cl)cc1)C(=O)O; d2Nal = N[C@H](Cc1ccc2ccccc2c1)C(=O)O; dCit = NC(=O)NCCC[C@@H](N)C(=O)O; d3Pal = N[C@H](Cc1cccnc1)C(=O)O

Take `CC(=O)N[C@H](Cc1ccc2ccccc2c1)C(=O)N[C@H](Cc1ccc(Cl)cc1)C(=O)N[C@H](Cc1cccnc1)C(=O)N[C@@H](CO)C(=O)N[C@@H](Cc1ccc(O)cc1)C(=O)N[C@H](CCCNC(N)=O)C(=O)N[C@@H](CC(C)C)C(=O)N[C@@H](CCCNC(=N)N)C(=O)N1CCC[C@H]1C(=O)N[C@H](C)C(N)=O` [Cetrorelix] (Ac-[d2Nal][dPhe(4-Cl)][d3Pal]SY[dCit]LRP[dA]-NH2): in the test with hormone concentration, the “suppression of the hormone concentration” value is reported as “complete suppression of the hormone concentration to castration level”. Moreover, in test [1], the “treatment of DMBA-induced mammary cancers” value is given as “successful treatment”. Also, in the test on LH, FSH and testosterone (after 10 mg initial dose, maintenance 1 mg every 12 hours, 2 mg every 24 hours or 1 mg every 24 hours, three weeks), the “suppression of LH, FSH and testosterone under maintenance doses after initial dose” value is “suppression of LH, FSH and testosterone was maintained”. For the same molecule, the “suppression of LH, FSH and testosterone after initial dose” value in the test with LH, FSH and testosterone (injection of an initial dose of 10 mg) was “led to suppression of LH, FSH and testosterone”. Besides, the “suppression of LH, FSH and testosterone with maintenance doses on their own” value with LH, FSH and testosterone (maintenance doses (1 mg every 12 hours, 2 mg every 24 hours, 1 mg every 24 hours) applied on their own, no initial dose) is “suppression of LH, FSH and testosterone is not achieved”.
